Measurements as given in US9868935B2, “Composition and method of stem cells for preservation of cardiac tissue” (CRIOESTAMINAL, SAÚDE E TECNOLOGIA, SA., priority 2012, dated 2018).

Legend:
[1] = tested on: CD34+ cells; assay: Cytokine secretion by CD34+ cells (Bio-Plex cytokine bead array); type: cell-based, human; conditions: LPA 100 μM; hypoxia, serum free, 24 h
Protocol: In an embodiment, cell culture supernatants were evaluated for the presence and concentrations of cytokines using a Bio-Plex Pro Human Cytokine 17-Plex Panel Assay (preferably, Bio-Rad, Hercules, Calif., USA), according to manufacturer's instructions, in a Bio-Plex 200 System (Bio-Rad, www.bio-rad.com). The human Group I 17-Plex Panel consisted of the following analytes: interleukin-1β (IL-1β), IL-2, IL-4, IL-5, IL-6, IL-7, IL-8; IL-10, IL-12(p70), IL-13, IL-17, granulocyte colony-stimulating factor (G-CSF), granulocyte/macrophage colony-stimulating factor (GM-CSF), interferon-γ (IFN-γ), monocyte chemotactic protein (monocyte chemotactic activating factor [MCP-1 (MCAF)], macrophage inflammatory protein-β (MIP-1 β) and tumor necrosis factor-α (TNF-α). Supernatant media samples were collected, centrifuged to remove precipitates and frozen. A standard range of 0.2 to 3,200 pg/mL was used. Samples and controls were run in triplicate, standards and blanks in duplicate.
To determine the effect of LPA in the release of signaling cytokines and growth factors by CD34+ cells, was used a cytokine bead array. The cells were incubated in serum free medium X-Vivo for 24 h under normoxia or hypoxia conditions, either in the presence or absence of LPA (100 μM). Untreated CD34+ cells in normoxia express high levels (>100 pg/mL) of IL-8 and MIP-1b, medium levels (between 100 and 1 pg/mL) of IL-6, TNF-α and GM-CSF, and low levels (<1 pg/mL) of IL-1β, IL-4 and IL-17 (FIG. 5C).

[2] = tested on: CD34+ cells encapsulated in fibrin gel; assay: Survival of CD34+ cells encapsulated in fibrin gels in hypoxia and serum deprived conditions; type: cell-based, human; conditions: LPA-treated
Protocol: In an embodiment, fibrin gels were formed by crosslinking of fibrinogen in the presence of thrombin (both from Sigma-Aldrich). The fibrinogen solution was prepared by dissolving human fibrinogen in Tris-buffered saline (TBS) (preferably, Sigma-Aldrich), pH 7.4 (20 mg/mL), and then sterilized by filtering through a 0.22 μm syringe filter (Acrodisc, Pall, NY, USA). Fresh thrombin solutions were prepared by dissolving human thrombin in TBS at pH 7.4 at a concentration of 50 U/mL. Fibrin gels (200 μL, unless otherwise stated) were prepared by mixing three different components: fibrinogen (10 mg/mL), CaCl2 (preferably, Merck, NJ, USA) ([…]) and thrombin (0.2 U/mL). This solution was allowed to gel at 37° C. and 100% relative humidity.
Injectable scaffolds are very promising vehicles to deliver stem cells for regenerative medicine since they provide a favorable structural support for cell survival and proliferation (Pedroso, D. C., et al., Improved survival, vascular differentiation and wound healing potential of stem cells co-cultured with endothelial cells. PLoS One, 2011. 6(1): p. e16114; Kraehenbuehl, T. P., R. Langer, and L. S. Ferreira, Three-dimensional biomaterials for the study of human pluripotent stem cells. Nat Methods, 2011. 8(9): p. 731-6; Nakamuta, J. S., et al., Cell therapy attenuates cardiac dysfunction post myocardial infarction: effect of timing, routes of injection and a fibrin scaffold. PLoS One, 2009. 4(6): p. e6005.). Several studies have shown that cells transplanted with scaffolds in the cardiac setting improved cell survival, induced angiogenesis and preserved cardiac function after infarction (Nakamuta, J. S., et al., Cell therapy attenuates cardiac dysfunction post myocardial infarction: effect of timing, routes of injection and a fibrin scaffold. PLoS One, 2009. 4(6): p. e6005; Christman, K. L., et al., Fibrin glue alone and skeletal myoblasts in a fibrin scaffold preserve cardiac function after myocardial infarction. Tissue Eng, 2004. 10(3-4): p. 403-9; Kraehenbuehl, T. P., et al., Human embryonic stem cell-derived microvascular grafts for cardiac tissue preservation after myocardial infarction. Biomaterials, 2011. 32(4): p. 1102-9; Kutschka, I., et al., Collagen matrices enhance survival of transplanted cardiomyoblasts and contribute to functional improvement of ischemic rat hearts. Circulation, 2006. 114(1 Suppl): p. I167-73). […] Cell viability was evaluated by flow cytometry using Annexin V/propidium iodide (PI) staining.

lysophosphatidic acid [LPA]
secretion of GM-CSF [1]: ~1 pg/mL | secretion of IL-1 [1]: ~2 pg/mL | secretion of IL-4 [1]: ~2.7 pg/mL | secretion of IL-6 [1]: ~2 pg/mL | secretion of IL-8 [1]: ~17,000 pg/mL | secretion of TNF-α [1]: ~15 pg/mL | viable cells ([2]; encapsulated in fibrin gel, hypoxia day 1): 69.0±0.7% | viable cells ([2]; encapsulated in fibrin gel, hypoxia day 3): 51.1±0.8% | viable cells ([2]; non-encapsulated, hypoxia day 1): 76.7±1.5% | viable cells ([2]; non-encapsulated, hypoxia day 3): 37.2±6.6%
